The record followed here is PubChem BioAssay (NCI).

Common to all, as to assay: NCI tumour cell line growth inhibition, 48 h
The subject of assay [1] is SK-OV-3 ovarian.
Assay [2] relates to MOLT-4 leukemia.
Assay [3] deals with U251 CNS.
The test system of assay [4] is LOX IMVI melanoma.
Assay [5] has as its system CCRF-CEM leukemia.
In assay [6] the test system is DU-145 prostate.
In assay [7] the test system is PC-3 prostate.
The subject of assay [8] is 786-0 renal.

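The compound was tested at five concentrations on cells cultured in 96-well plates, with a 48-hour exposure period. The concentration for 50% growth inhibition is given as GI50. TGI: total growth inhibition.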

As for `COc1cc(OC)c(C(=O)/C=C/c2cccc(C#N)c2)c(OC)c1`, the GI50 in assay [1] was 1.82 µM; in assay [2] it was 1.13 µM; in assay [3], 1.53 µM; in assay [4] it was 1.23 µM; in assay [5], 1.03 µM; in assay [6], 1.47 µM. Further, the GI50 in assay [7] is 1.71 µM; in assay [8] it was 1.31 µM. Further, the TGI in assay [1] is above 50 µM; in assay [2], above 50 µM; in assay [3], 5.76 µM; in assay [4] it was 5.18 µM; in assay [5], above 50 µM; in assay [6] it was 6.37 µM. In addition, the TGI was found to be 8.26 µM in assay [7] and 5.52 µM in assay [8].

For the compound `Cc1nn(C)c(COc2ccc(N3CCN(S(=O)(=O)N(C)C)CC3)cc2)c1-c1cccc2c(CCCOc3cccc4ccccc34)c(C(=O)O)n(CCN3CCOCC3)c12`, the GI50 in assay [1] was 2.64 µM; in assay [2], 3.52 µM; in assay [3], 3.13 µM; in assay [4], 3.16 µM; in assay [5], 4.19 µM; in assay [6], 5.03 µM. The GI50 is 3.27 µM in assay [7] and 2.52 µM in assay [8]. Also, the TGI in assay [1] was 10.3 µM; in assay [2], 16.5 µM; in assay [3] it was 11.5 µM; in assay [4], 11.6 µM; in assay [5], above 100 µM; in assay [6], 16.7 µM. In addition, the TGI in assay [7] was 10.7 µM; in assay [8], 6.97 µM.

Regarding `CC(=O)[O][Sn]([CH2]c1ccccc1)([CH2]c1ccccc1)[CH2]c1ccccc1`, the GI50 in assay [1] is above 10 µM; in assay [2] it was above 10 µM; in assay [3], above 10 µM; in assay [4], 3.79 µM; in assay [5], above 4.58 µM; in assay [6] it was above 10 µM. In addition, the GI50 in assay [7] is above 7.52 µM; in assay [8], above 7.05 µM. Besides, the TGI in assay [1] was above 10 µM; in assay [2], above 10 µM; in assay [3] it was above 10 µM; in assay [4] it was above 4.64 µM; in assay [5], above 6.27 µM; in assay [6] it was above 10 µM. The TGI in assay [7] and in assay [8] was above 10 µM throughout.

For the compound `Cc1nn(-c2ccc(Cl)cc2)c2nc3c(nc12)C(=O)C(=O)c1ccccc1-3`, the GI50 in assay [1] was above 100 µM; in assay [2] it was above 100 µM; in assay [3], 3.21 µM; in assay [4], 2.08 µM; in assay [6], 1.98 µM; in assay [7], 2.31 µM. Moreover, in assay [8], the GI50 was 5.39 µM. For the same compound, the TGI was above 100 µM in assay [1]; above 100 µM in assay [2]; 10.1 µM in assay [3]; 5.89 µM in assay [4]; 3.57 µM in assay [6]; above 100 µM in assay [7]. In assay [8], this compound gave a TGI of 25.9 µM.

In the case of `COc1cc([N+](=O)[O-])c(OC)cc1-c1nc2sccn2c1/C=N/N=C(N)N`, the GI50 in assay [1] is 36.5 µM; in assay [2] it was above 100 µM; in assay [3], 3.66 µM; in assay [4] it was 17.9 µM; in assay [6], 30.4 µM; in assay [7], 24.2 µM. The GI50 in assay [8] was 18 µM. The TGI in assay [1] was 94.8 µM; in assay [2] it was above 100 µM; in assay [3] it was 15 µM; in assay [4], 41.5 µM; in assay [6], above 100 µM; in assay [7], above 100 µM. Further, the TGI in assay [8] was 49.6 µM.

For the compound `COc1cccc(-c2cc3c4c(nc5ccccc53)C(=O)c3cccnc3-c4n2)c1`, the GI50 in assay [1] is 8.57 µM; in assay [2] it was 0.788 µM; in assay [3] it was 1.66 µM; in assay [4], 2.31 µM; in assay [6], 1.67 µM; in assay [7] it was 2.73 µM. For the same compound, the GI50 in assay [8] is 2.03 µM. The TGI in assay [1] is 25.7 µM; in assay [2] it was above 100 µM; in assay [3], 7.13 µM; in assay [4], above 100 µM; in assay [6], 3.13 µM; in assay [7], 12.8 µM. The TGI in assay [8] is 4.48 µM.

As for `COC(=O)c1cc2ccccc2c2c3c(ccc12)OCO3`, the GI50 is 45.8 µM in assay [1]; 794 µM in assay [2]; 79.2 µM in assay [3]; 772 µM in assay [4]; 109 µM in assay [6]; 67.4 µM in assay [7]. For the same compound, the GI50 in assay [8] is 56.1 µM. Further, the TGI in assay [1] is 357 µM; in assay [2], above 1000 µM; in assay [3], 924 µM; in assay [4], above 1000 µM; in assay [6], above 1000 µM; in assay [7], above 1000 µM. In assay [8], this compound yielded a TGI of 477 µM.

On to `Nc1ncnc2c1c(-c1ccc(Oc3ccccc3)cc1)nn2C[C@@H]1SSC[C@H]1O`, for which the GI50 is 0.92 µM in assay [1]; 2.48 µM in assay [3]; 0.272 µM in assay [4]; 0.278 µM in assay [5]; 2.26 µM in assay [6]; 3.23 µM in assay [7]. In addition, the GI50 in assay [8] was 2.41 µM. Moreover, the TGI in assay [1] is 4.33 µM; in assay [3], 8.21 µM; in assay [4] it was 1.74 µM; in assay [5] it was above 100 µM; in assay [6] it was 8.97 µM; in assay [7], 15.5 µM. In addition, the TGI in assay [8] was 8.31 µM.

On to `CC[C@H](CO)Nc1nc(NCc2ccccc2)c2ncn(C(C)C)c2n1`, for which the TGI in assay [1] is above 100 µM; in assay [3], above 100 µM; in assay [4] it was above 84.1 µM; in assay [5], above 100 µM; in assay [6], above 100 µM; in assay [7] it was 70 µM. This compound returned a TGI in assay [8] above 100 µM. For the same compound, the GI50 was 40 µM in assay [3], above 50.6 µM in assay [5], 19.9 µM in assay [6] and 31.9 µM in assay [8].

On to `Cn1cc(-c2csc(-c3cn(CCCN4CCCCC4)c4ccccc34)n2)c2cccnc21`, for which the GI50 in assay [1] was 19.3 µM; in assay [3], 1.87 µM; in assay [4], 1.66 µM; in assay [6], 1.75 µM; in assay [7], 1.74 µM; in assay [8], 1.53 µM. The TGI turned out to be 42.7 µM in assay [1]; 3.38 µM in assay [3]; 3.11 µM in assay [4]; 3.17 µM in assay [6]; 3.3 µM in assay [7]; 2.93 µM in assay [8].
